Source: the supplement of paper PMC10307832

Columns and labels:
Assay in all cases: relative viability (nuclei count vs DMSO), 5 days (fraction); higher = more cells survive
NCI-H2170 = test system: NCI-H2170
Procedure, shortened: (§1)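 Cells from lung cancer lines were seeded into 1536-well plates and, one day later, dosed by pin tool. Treatments were either a single drug or a fixed dose of an anchor drug with five library-drug doses (not always all listed) in √10 steps. After 5 days, nuclei were stained in a one-step fixation (final 0.05% Triton X-100, 1% formaldehyde, 1 ug/ml Hoechst) and counted on 4× images, and relative viability is the treated-to-vehicle nuclei ratio, as the median of duplicate plates.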

HCC-78 = test system: HCC-78
Procedure, shortened: as §1

EPLC-272H = test system: EPLC-272H
Procedure, shortened: as §1

SK-LU-1 = test system: SK-LU-1
Procedure, shortened: as §1

NCI-H1975 = test system: NCI-H1975
Procedure, shortened: as §1

NCI-H358 = test system: NCI-H358
Procedure, shortened: as §1

LU99A = test system: LU99A
Procedure, shortened: as §1

HCC-366 = test system: HCC-366
Procedure, shortened: as §1

NCI-H460 = test system: NCI-H460
Procedure, shortened: as §1

A-427 = test system: A-427
Procedure, shortened: as §1

NCI-H1792 = test system: NCI-H1792
Procedure, shortened: as §1

NC(=O)Nc1cc(-c2cccc(F)c2)sc1C(=O)N[C@H]1CCCNC1 [AZD7762] + CS(=O)(=O)N1CCN(Cc2cc3nc(-c4cccc5[nH]ncc45)nc(N4CCOCC4)c3s2)CC1 [Pictilisib] (partner 1 µM)
relative viability (NCI-H2170; first compound 0.01 µM): 0.322
relative viability (NCI-H2170; first compound 0.03162 µM): 0.338
relative viability (NCI-H2170; first compound 0.1 µM): 0.326
relative viability (NCI-H2170; first compound 0.3162 µM): 0.292
relative viability (NCI-H2170; first compound 1 µM): 0.247
relative viability (HCC-78; first compound 0.01 µM): 0.241
relative viability (HCC-78; first compound 0.03162 µM): 0.228
relative viability (HCC-78; first compound 0.1 µM): 0.205
relative viability (HCC-78; first compound 0.3162 µM): 0.213
relative viability (HCC-78; first compound 1 µM): 0.18
relative viability (EPLC-272H; first compound 0.01 µM): 0.309
relative viability (EPLC-272H; first compound 0.03162 µM): 0.377
relative viability (EPLC-272H; first compound 0.1 µM): 0.291
relative viability (EPLC-272H; first compound 0.3162 µM): 0.316
relative viability (EPLC-272H; first compound 1 µM): 0.247
relative viability (SK-LU-1; first compound 0.01 µM): 0.694
relative viability (SK-LU-1; first compound 0.03162 µM): 0.644
relative viability (SK-LU-1; first compound 0.1 µM): 0.337
relative viability (SK-LU-1; first compound 0.3162 µM): 0.176
relative viability (SK-LU-1; first compound 1 µM): 0.2
relative viability (NCI-H1975; first compound 0.01 µM): 0.334
relative viability (NCI-H1975; first compound 0.03162 µM): 0.304
relative viability (NCI-H1975; first compound 0.1 µM): 0.288
relative viability (NCI-H1975; first compound 0.3162 µM): 0.235
relative viability (NCI-H1975; first compound 1 µM): 0.194
relative viability (NCI-H358; first compound 0.01 µM): 0.363
relative viability (NCI-H358; first compound 0.03162 µM): 0.358
relative viability (NCI-H358; first compound 0.1 µM): 0.35
relative viability (NCI-H358; first compound 0.3162 µM): 0.325
relative viability (NCI-H358; first compound 1 µM): 0.267
relative viability (LU99A; first compound 0.01 µM): 0.381
relative viability (LU99A; first compound 0.03162 µM): 0.331
relative viability (LU99A; first compound 0.1 µM): 0.324
relative viability (LU99A; first compound 0.3162 µM): 0.319
relative viability (LU99A; first compound 1 µM): 0.207
relative viability (HCC-366; first compound 0.01 µM): 0.153
relative viability (HCC-366; first compound 0.03162 µM): 0.128
relative viability (HCC-366; first compound 0.1 µM): 0.213
relative viability (HCC-366; first compound 0.3162 µM): 0.137
relative viability (HCC-366; first compound 1 µM): 0.133
relative viability (NCI-H460; first compound 0.01 µM): 0.356
relative viability (NCI-H460; first compound 0.03162 µM): 0.382
relative viability (NCI-H460; first compound 0.1 µM): 0.417
relative viability (NCI-H460; first compound 0.3162 µM): 0.342
relative viability (NCI-H460; first compound 1 µM): 0.175
relative viability (A-427; first compound 0.01 µM): 0.654
relative viability (A-427; first compound 0.03162 µM): 0.879
relative viability (A-427; first compound 0.1 µM): 0.762
relative viability (A-427; first compound 0.3162 µM): 0.734
relative viability (A-427; first compound 1 µM): 0.49
relative viability (NCI-H1792; first compound 0.01 µM): 0.323
relative viability (NCI-H1792; first compound 0.03162 µM): 0.328
relative viability (NCI-H1792; first compound 0.1 µM): 0.311
relative viability (NCI-H1792; first compound 0.3162 µM): 0.377
relative viability (NCI-H1792; first compound 1 µM): 0.431
